Consider two molecules from publication PMC8960591, “PCSK9 acts as a key regulator of Aβ clearance across the blood–brain barrier” (Cellular and Molecular Life Sciences: CMLS, 2022).

Series [1] concerns 5xFAD mice. The series can be described thus: Fear conditioning (contextual and cued fear response, behaviour in training phase). Type of series: in vivo, mouse. As to conditions: n = 8–13 per group. Here is the method: (§1) 14-weeks-old female 5xFAD transgenic or wildtype littermates were randomized into groups with similar average body weights (18–20 g), respectively. 1 µg/g Alirocumab (Sanofi), Evolocumab (Amgen), or non-specific human IgG2 control antibody (Bio X Cell) in 0.9% isotonic saline solution (BBraun) or the analogous volume of pure 0.9% isotonic saline solution were weekly i.p. injected for a period of 10 weeks. 7 days before starting the injection procedure LRP1^BE−/− was induced by i.p. injection of 75 µg/g tamoxifen (Sigma-Aldrich) for 5 consecutive days and maintained with chow containing 400 mg/kg tamoxifen citrate (LASvendi). To sacrifice animals, mice were anesthetized with 100 µg/g ketamine (Pfizer) in combination with 10 µg/g xylazine (Bayer HealthCare) and euthanized by cervical dislocation.
24-week-old female 5xFAD mice LRP1^BEfl/fl or LRP1^BE−/− and wildtype age-matched female littermates treated as described earlier were assessed for contextual and cued fear response adapted to previous studies, using the computerized TSE Multi Conditioning System (TSE GmbH). Movement was assessed by high-resolution infrared sensors (100 Hz) in three dimensions (14 mm distant) and documented by the FCS software. In the training phase, mice were placed in the conditioning chamber for 3 min, followed by a 30-s tone application (72 dB, 9 kHz). During the last 2 s, the tone was accompanied by shock delivery (0.7 mA). Contextual memory testing was performed 24 h-post conditioning, confronting the animals 3 min to the training context without tone application. Cued memory was assessed 2 h later, by pre-exposing the animals 3 min to a non-conditioned context, followed by a tone application for 60 s according to the training session. Freezing behavior (the absence of all but respiratory movements ≥ 2 s), motoric abilities, environmental behavior (% of explored area), and activity (≥ 30 mm/s)/hyperactivity (≥ 200 mm/s) levels were recorded automatically.
Fig. 6 Peripheral PCSK9 inhibition improves contextual memory formation of 5xFAD transgenic mice in a Fear Conditioning paradigm. 6-month-old 5xFAD mice treated with 1 µg/g Alirocumab or 0.9% NaCl for 10 weeks were analyzed for A hippocampus-dependent contextual fear response and B hippocampus-independent cued fear response in comparison to wildtype and LRP1^BE−/− littermates. […] Higher freezing behavior percentage indicates stronger memory formation. Data represent mean ± SEM of n = 8–13 mice per group. For statistical analyses one-way ANOVA followed by Tukey’s multiple comparison test was used (*p < 0.05; **p < 0.01)

In series [2] the test system is 5xFAD mice. Briefly: Brain Aβ1–40 and Aβ1–42 ELISA of soluble and insoluble brain fractions after repetitive anti-PCSK9 antibody injection. The class given is in vivo, mouse. As to conditions: n = 4–14 per group. Here is the method:
as §1
Extracted blood was supplemented with an EDTA-free protease inhibitor cocktail (Roche Applied Science) and allowed to clot at room temperature for 10 min. Liver were weighed and homogenized in 3 ml/g fresh cold tissue lysis buffer [50 mmol/l Tris (pH 7.4), 150 mmol/l NaCl, 0.1% (w/v) SDS, 1% (v/v) Nonidet P-40, 0.5% (w/v) sodium deoxycholate, 1 mmol/l EDTA (pH 7.4)] containing an EDTA-free protease inhibitor cocktail using the Precellys Lysing Kit (Bertin instruments). Extracts were purified for 3 min (18,620 rcf, 4 °C). CSF samples were isolated via puncture of cisterna magna as described previously and purified for 10 min (1000 rcf, 4 °C). Brains were weighed and soluble and insoluble brain fractions sequential extracted. Initially, homogenization by a glass homogenizer occurred in 6 ml/g PBS, containing an EDTA-free protease inhibitor cocktail and 1 mmol/l EDTA (pH 7.4). The homogenate was centrifuged for 20 min (131,700 rcf, 4 °C) and the supernatant (soluble brain fraction) isolated. Subsequently, the brain pellet was homogenized in 4 ml/g PBS containing 2% (v/v) SDS using the Precellys Lysing Kit. Centrifugation was repeated and the supernatant (insoluble brain fraction) collected. The preparation of capillary-depleted brain fractions based on an established protocol. Briefly, brains were weighed, homogenized by a glass homogenizer in 6 ml/g PBS, and centrifuged for 5 min (1350 rcf, 4 °C). The pellet was resuspended in 3 ml/g PBS, containing 18% dextran (~ 70,000 g/mol; Roth), vortexed thoroughly for 1 min, and centrifuged for 10 min (4863 rcf, 4 °C). Subsequently, the supernatant (capillary-free brain fraction) was transferred, mixed thoroughly with 3 ml/g PBS, and centrifuged for 5 min (1350 rcf, 4 °C). The brain parenchymal pellet was lysed for 20 min using tissue lysis buffer containing an EDTA-free protease inhibitor cocktail and 1 mmol/l EDTA (pH 7.4) and purified for 20 min (18,620 rcf, 4 °C). Each isolated sample was snap frozen via liquid nitrogen and stored at − 80 °C.
The levels of Aβ1–40 and Aβ1–42 in soluble and insoluble brain fractions were blindly determined using Human Amyloid β (FL) Assay Kits (Immuno-Biological Laboratories) according to the manufacturer’s protocol.
Fig. 4 Peripheral PCSK9 inhibition reduces overall Aβ burden. […] Lanes were run on the same gel but were noncontinuous. Aβ1–40 and Aβ1–42 signals were verified by loading peptide standards. Data represent mean ± SEM of n = 4–14 mice per group. For statistical analyses one-way ANOVA followed by Tukey’s multiple comparison test was used (*p < 0.05; **p < 0.01)
Background: An ELISA detects its analyte on a solid surface through an enzyme-linked reagent.

Series [3] has as its system 5xFAD mice. The series can be described thus: Immunoblot of liver lysates, serum, capillary-depleted brain fractions and CSF. Type of series: in vivo, mouse. The conditions noted are these: 6-month-old 5xFAD mice, 1 µg/g Alirocumab for 10 weeks vs 0.9% NaCl. Here is the method: as §1, with “To sacrifice animals, mice were anesthetized with 100 µg/g ketamine (Pfizer) in combination with 10 µg/g xylazine (Bayer HealthCare) and euthanized by cervical dislocation.” left out
Protein concentrations were determined using the Pierce™ BCA Protein Assay Kit (Thermo Fisher Scientific) according to the manufacturer’s protocol. […]
Fig. 3 Systemic PCSK9 inhibition increases peripheral LRP1 level. A Liver lysates, B serum, as well as C capillary-depleted brain fractions and D CSF samples of 6-month-old 5xFAD mice, treated repetitively with A–C 1 µg/g Alirocumab or D Evolocumab in comparison to A–C 0.9% NaCl or D non-specific human control IgG2 for 10 weeks were evaluated via immunoblot analyses for LRP1 (full length, α-chain, β-chain), LDL receptor, human as well as mouse IgG, and ApoE, and representatively presented. […]
(A western blot detects proteins with antibodies after separation by electrophoresis.)

Series [4] relates to 5xFAD mice. Briefly: Plaque load quantification by immunofluorescence. Type of series: in vivo, mouse. As to conditions: 6-month-old 5xFAD mice, 1 µg/g Alirocumab for 10 weeks vs 0.9% NaCl, plaques ≥ 80 µm2, mean. Here is the method:
as §1, with “To sacrifice animals, mice were anesthetized with 100 µg/g ketamine (Pfizer) in combination with 10 µg/g xylazine (Bayer HealthCare) and euthanized by cervical dislocation.” left out
Mice were transcardially perfused with ice-cold PBS followed by 4% Roti®-Histofix (Roth). […] Within one hemisphere 12 sections were analyzed; 6 representatives for prefrontal cortex (corresponding to bregma from 0.86 to + 0.62 mm) and 6 for the hippocampus (corresponding to bregma from − 1.82 to − 2.06 mm). Plaque load (aggregates ≥ 80 µm^2) was quantified using the NIH ImageJ 1.52 software as described previously.
Fig. 5 Aβ plaque load of prefrontal cortex and hippocampus is reduced due to systemic PCSK9 inhibition. A Prefrontal cortex and B hippocampus of 6-month-old 5xFAD mice treated with 1 µg/g alirocumab or 0.9% NaCl for ten weeks were quantified for amyloid plaques. […]

Series [5] deals with 5xFAD mice. The series can be described thus: Serum LDL/VLDL and HDL cholesterol. Type of series: in vivo, mouse. As to conditions: 6-month-old 5xFAD mice, 1 µg/g Evolocumab for 10 weeks vs non-specific human IgG2 control antibody; n = 8–9 per group. Here is the method:
as §1
Serum VLDL/LDL and HDL cholesterol were separated and concentrations blindly determined using the Cholesterol Assay Kit—HDL and LDL/VLDL (Abcam) according to the manufacturer’s protocol.
Supplementary Fig. 2 Systemic PCSK9 inhibition reduces serum LDL/VLDL and free PCSK9 levels. (A) Serum LDL/VLDL- and (B) HDL-cholesterol levels of 6-months-old 5xFAD mice, treated repetitively with 1 µg/g Evolocumab or non-specific human IgG2 control antibody for ten weeks were assessed via ELISA. […] Levels of immunoprecipitated PCSK9 were evaluated via immunoblot analyses and representatively presented

The target of series [6] is T1, PCSK9 (Mus musculus, UniProt Q80W65).
T1 construct: substantially decreases the amount of free circulating PCSK9; from tissue; host or cells: serum of 6-month-old 5xFAD mice
T1 sequence (Q80W65 156-694): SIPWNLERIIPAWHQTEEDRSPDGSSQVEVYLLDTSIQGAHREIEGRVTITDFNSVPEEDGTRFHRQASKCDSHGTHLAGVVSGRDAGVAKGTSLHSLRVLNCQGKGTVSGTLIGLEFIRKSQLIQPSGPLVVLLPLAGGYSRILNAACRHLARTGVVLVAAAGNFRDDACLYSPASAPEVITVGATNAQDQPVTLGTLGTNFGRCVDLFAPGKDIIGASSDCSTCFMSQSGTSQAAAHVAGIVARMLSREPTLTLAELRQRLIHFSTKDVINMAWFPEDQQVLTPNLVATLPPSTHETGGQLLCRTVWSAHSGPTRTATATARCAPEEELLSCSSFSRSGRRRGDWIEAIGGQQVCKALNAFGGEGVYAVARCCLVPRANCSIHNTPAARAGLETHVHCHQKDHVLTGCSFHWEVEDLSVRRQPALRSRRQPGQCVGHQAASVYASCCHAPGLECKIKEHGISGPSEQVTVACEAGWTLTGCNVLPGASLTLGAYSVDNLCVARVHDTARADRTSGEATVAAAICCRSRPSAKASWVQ
Briefly: Free circulating PCSK9 in serum (immunoprecipitation with crosslinked Evolocumab, immunoblot). The class given is in vivo. As to conditions: 6-month-old 5xFAD mice, 1 µg/g Evolocumab for 10 weeks vs non-specific human IgG2 control antibody. Here is the method:
Precleared serum via raw Protein A Agarose (Roche) was diluted in PBS containing an EDTA-free protease inhibitor cocktail and incubated with Protein A Agarose crosslinked to Evolocumab overnight at 4 °C. Beads were washed three times with PBS, followed by elution in 100 mmol/l glycine (pH 2.7) and neutralization with 500 mmol/l tris (pH 8.0).
Supplementary Fig. 2 Systemic PCSK9 inhibition reduces serum LDL/VLDL and free PCSK9 levels. (A) Serum LDL/VLDL- and (B) HDL-cholesterol levels of 6-months-old 5xFAD mice, treated repetitively with 1 µg/g Evolocumab or non-specific human IgG2 control antibody for ten weeks were assessed via ELISA. Data represents mean ± SEM of n = 8 - 9 mice per group. For statistical analyses unpaired two-tailed t-test was used (*p <0.05). (C) Additionally, serum samples were precleared by using raw Protein A Agarose and incubated with Protein A Agarose crosslinked to Evolocumab. Levels of immunoprecipitated PCSK9 were evaluated via immunoblot analyses and representatively presented

Where [7] appears, read: 5xFAD LRP1BE−/− mice, 1 µg/g Alirocumab for 10 weeks vs 0.9% NaCl.
Where [8] appears, read: 6-month-old 5xFAD mice, 1 µg/g Alirocumab for 10 weeks vs 0.9% NaCl.
Where [9] appears, read: 6-month-old female 5xFAD mice, 1 µg/g Alirocumab i.p. weekly for 10 weeks vs 0.9% NaCl, mean.

Take “Alirocumab: FDA-approved monoclonal anti-PCSK9 antibody (Sanofi)”: the “hippocampus-dependent learning capacity (contextual fear)” value in series [1] (setting [7]) was “do not significantly benefit”. Moreover, the “hippocampus-independent cued fear response” value in series [1] (5xFAD, 5xFAD LRP1BE−/− and wildtype littermates, PCSK9 inhibition or control, 2 h after contextual test) is given as “no significant differences”. The “contextual fear response (freezing) vs control-treated 5xFAD mice” value in series [1] (6-month-old 5xFAD mice, 1 µg/g Alirocumab for 10 weeks vs 0.9% NaCl, 24 h post-training) is “significant increased”. In series [1] (setting [8]), the “activity and hyperactivity levels and basal freezing during the conditioning phase” value is reported as “No differences”; the “motoric abilities and environmental behavior during the conditioning phase” value is “No differences”. Moreover, in series [1] (6-month-old 5xFAD mice, 1 µg/g Alirocumab for 10 weeks, 24 h post-training), the “contextual freezing vs control-treated wildtype littermates” value is “no significant difference”. The “contextual freezing, treated vs control-treated wildtype animals” value in series [1] (wildtype littermates, 1 µg/g Alirocumab for 10 weeks vs 0.9% NaCl) is “did not detect any significant difference”. For the same molecule, the “soluble and insoluble Aβ1–40 and Aβ1–42 levels vs control-treated mice” value in series [2] (setting [7]) is on record as “no significant difference”. For the same molecule, in series [2] (setting [9]), the “reduction of insoluble brain Aβ1–40” value is ~ 44%, the “reduction of insoluble brain Aβ1–42” value was ~ 38%, the “reduction of soluble brain Aβ1–40” value was ~ 58% and the “reduction of soluble brain Aβ1–42” value is reported as ~ 51%. For the same molecule, the “peripheral LRP1 level (liver lysates)” value in series [3] is reported as “increases”. Besides, in series [4] (n = 3–4 per group), the “reduction of plaque load, hippocampus” value is given as ~ 23%. In addition, in series [4] (n = 8 per group), the “reduction of plaque load, prefrontal cortex” value was ~ 17%.

B1: Evolocumab: FDA-approved monoclonal anti-PCSK9 antibody (Amgen) (antibody, chains of the INN, looked up, V domains shown)
VH: EVQLVQSGAEVKKPGASVKVSCKASGYTLTSYGISWVRQAPGQGLEWMGWVSFYNGNTNYAQKLQGRGTMTTDPSTSTAYMELRSLRSDDTAVYYCARGYGMDVWGQGTTVTVSS
VL: ESALTQPASVSGSPGQSITISCTGTSSDVGGYNSVSWYQQHPGKAPKLMIYEVSNRPSGVSNRFSGSKSGNTASLTISGLQAEDEADYYCNSYTSTSMVFGGGTKLTVL
For the molecule B1, the “serum LDL/VLDL-cholesterol level” value in series [5] is on record as “reduces”. In addition, the “free PCSK9 level in serum” value in series [6] was “reduces”.
